Data published in ChEMBL document CHEMBL1156987, “Novel azalides derived from 16-membered macrolides. III. Azalides modified at the C-15 and 4'' positions: Improved antibacterial activities” (Bioorg Med Chem, 2010).
Converted amounts (≈) assume the structure as drawn.

Assays:
Type in all cases: functional
[1] = system: Staphylococcus aureus; assay: Antibacterial activity against Staphylococcus aureus 209P JC1 after 20 hrs by agar dilution method; settings: 209P JC1, 20 h
[2] = system: Streptococcus pneumoniae; assay: Antibacterial activity against Streptococcus pneumoniae DP1 type 1 after 20 hrs by agar dilution method; settings: DP1 type1, 20 h
[3] = system: Streptococcus pneumoniae; assay: Antibacterial activity against Streptococcus pneumoniae 5 expressing constitutive ermB methylase after 20 hrs by agar dilution method; settings: Streptococcus pneumoniae, 5, 20 h
[4] = system: Streptococcus pneumoniae; assay: Antibacterial activity against Streptococcus pneumoniae 6 expressing constitutive ermB methylase and mefA after 20 hrs by agar dilution method; settings: Streptococcus pneumoniae, 6, 20 h
[5] = system: Streptococcus pneumoniae; assay: Antibacterial activity against Streptococcus pneumoniae 7 expressing constitutive ermB methylase after 20 hrs by agar dilution method; settings: Streptococcus pneumoniae, 7, 20 h
[6] = system: Streptococcus pneumoniae; assay: Antibacterial activity against Streptococcus pneumoniae 8 expressing inducible ermB methylase after 20 hrs by agar dilution method; settings: Streptococcus pneumoniae, 8, 20 h
[7] = system: Streptococcus pneumoniae; assay: Antibacterial activity against Streptococcus pneumoniae 9 expressing inducible ermB methylase after 20 hrs by agar dilution method; settings: Streptococcus pneumoniae, 9, 20 h
[8] = system: Streptococcus pneumoniae; assay: Antibacterial activity against Streptococcus pneumoniae 10 expressing mefA efflux pump after 20 hrs by agar dilution method; settings: Streptococcus pneumoniae, 10, 20 h
[9] = system: Streptococcus pneumoniae; assay: Antibacterial activity against Streptococcus pneumoniae 11 expressing mefA efflux pump after 20 hrs by agar dilution method; settings: Streptococcus pneumoniae, 11, 20 h
[10] = system: Streptococcus pyogenes; assay: Antibacterial activity against Streptococcus pyogenes Cook after 20 hrs by agar dilution method
[11] = system: Streptococcus pyogenes; assay: Antibacterial activity against Streptococcus pyogenes 2 expressing constitutive ermB methylase after 20 hrs by agar dilution method; settings: Streptococcus pyogenes, 2, 20 h
[12] = system: Streptococcus pyogenes; assay: Antibacterial activity against Streptococcus pyogenes 3 expressing mefA efflux pump after 20 hrs by agar dilution method; settings: Streptococcus pyogenes, 3, 20 h
[13] = system: Haemophilus influenzae; assay: Antibacterial activity against Haemophilus influenzae 1 after 20 hrs by agar dilution method; settings: Haemophilus influenzae, 1, 20 h
[14] = system: Haemophilus influenzae; assay: Antibacterial activity against Haemophilus influenzae 2 after 20 hrs by agar dilution method; settings: Haemophilus influenzae, 2, 20 h
[15] = system: Haemophilus influenzae; assay: Antibacterial activity against Haemophilus influenzae 3 after 20 hrs by agar dilution method; settings: Haemophilus influenzae, 3, 20 h

| MIC [1] [µg/mL] | MIC [2] [µg/mL] | MIC [3] [µg/mL] | MIC [4] [µg/mL] | MIC [5] [µg/mL] | MIC [6] [µg/mL] | MIC [7] [µg/mL] | MIC [8] [µg/mL] | MIC [9] [µg/mL] | MIC [10] [µg/mL] | MIC [11] [µg/mL] | MIC [12] [µg/mL] | MIC [13] [µg/mL] | MIC [14] [µg/mL] | MIC [15] [µg/mL] | SMILES |
| --- | --- | --- | --- | --- | --- | --- | --- | --- | --- | --- | --- | --- | --- | --- | --- |
| 0.5 (≈ 0.467 µM) | 0.03 (≈ 0.028 µM) | 16 (≈ 14.9 µM) | 16 (≈ 14.9 µM) | 16 (≈ 14.9 µM) | 0.25 (≈ 0.233 µM) | 0.25 (≈ 0.233 µM) | 0.06 (≈ 0.056 µM) | 0.13 (≈ 0.121 µM) | 0.13 (≈ 0.121 µM) | 32 (≈ 29.9 µM) | 0.25 (≈ 0.233 µM) | 8 (≈ 7.47 µM) | 32 (≈ 29.9 µM) | 32 (≈ 29.9 µM) | CCC(=O)O[C@@H]1CC(=O)O[C@@H](C/C=C/c2cnc3ccccc3c2)CCCN(C)C[C@H](O)[C@H](C)C[C@H](CC=O)[C@H](O[C@@H]2O[C@H](C)[C@@H](O[C@H]3C[C@@](C)(OC(=O)CC)[C@@H](OC(=O)NC(C)C)[C@H](C)O3)[C@H](N(C)C)[C@H]2O)[C@H]1OC |
| 0.5 (≈ 0.466 µM) | 0.015 (≈ 0.014 µM) | > 32 | 32 (≈ 29.8 µM) | 32 (≈ 29.8 µM) | 0.25 (≈ 0.233 µM) | 0.5 (≈ 0.466 µM) | 0.015 (≈ 0.014 µM) | 0.015 (≈ 0.014 µM) | 0.06 (≈ 0.0559 µM) | > 32 | 0.13 (≈ 0.121 µM) | 4 (≈ 3.73 µM) | 16 (≈ 14.9 µM) | 16 (≈ 14.9 µM) | CCC(=O)O[C@@H]1CC(=O)O[C@@H](C/C=C/c2cnc3ccccc3c2)CCCN(C)C[C@H](O)[C@H](C)C[C@H](CC=O)[C@H](O[C@@H]2O[C@H](C)[C@@H](O[C@H]3C[C@@](C)(OC(=O)CC)[C@@H](OC(=O)NCCO)[C@H](C)O3)[C@H](N(C)C)[C@H]2O)[C@H]1OC |

Further lines, the molecule ahead of its results:

| SMILES | MIC [1] [µg/mL] | MIC [2] [µg/mL] | MIC [3] [µg/mL] | MIC [4] [µg/mL] | MIC [5] [µg/mL] | MIC [6] [µg/mL] | MIC [7] [µg/mL] | MIC [8] [µg/mL] | MIC [9] [µg/mL] | MIC [10] [µg/mL] | MIC [11] [µg/mL] | MIC [12] [µg/mL] | MIC [13] [µg/mL] | MIC [14] [µg/mL] | MIC [15] [µg/mL] |
| --- | --- | --- | --- | --- | --- | --- | --- | --- | --- | --- | --- | --- | --- | --- | --- |
| CCNC(=O)O[C@H]1[C@H](C)O[C@@H](O[C@H]2[C@H](N(C)C)[C@@H](O)[C@H](O[C@H]3[C@@H](CC=O)C[C@@H](C)[C@@H](O)CN(C)CCC[C@H](C/C=C/c4cncc5ccccc45)OC(=O)C[C@@H](O)[C@@H]3OC)O[C@@H]2C)C[C@@]1(C)OC(=O)CC | 0.25 (≈ 0.25 µM) | < 0.008 | 2 (≈ 2 µM) | 4 (≈ 4 µM) | 4 (≈ 4 µM) | 0.06 (≈ 0.0599 µM) | 0.06 (≈ 0.0599 µM) | 0.015 (≈ 0.015 µM) | 0.015 (≈ 0.015 µM) | 0.03 (≈ 0.03 µM) | 32 (≈ 32 µM) | 0.13 (≈ 0.13 µM) | 2 (≈ 2 µM) | 4 (≈ 4 µM) | 4 (≈ 4 µM) |
| CCNC(=O)O[C@H]1[C@H](C)O[C@@H](O[C@H]2[C@H](N(C)C)[C@@H](O)[C@H](O[C@H]3[C@@H](CC=O)C[C@@H](C)[C@@H](O)CN(C)CCC[C@H](C/C=C/c4cncc5ccccc45)OC(=O)C[C@@H](OC(=O)CC)[C@@H]3OC)O[C@@H]2C)C[C@@]1(C)OC(=O)CC | 0.5 (≈ 0.473 µM) | 0.015 (≈ 0.0142 µM) | 8 (≈ 7.57 µM) | 8 (≈ 7.57 µM) | 8 (≈ 7.57 µM) | 0.13 (≈ 0.123 µM) | 0.25 (≈ 0.236 µM) | 0.03 (≈ 0.0284 µM) | 0.03 (≈ 0.0284 µM) | 0.06 (≈ 0.0567 µM) | 128 (≈ 121 µM) | 0.25 (≈ 0.236 µM) | 8 (≈ 7.57 µM) | 16 (≈ 15.1 µM) | 16 (≈ 15.1 µM) |
| CCNC(=O)O[C@H]1[C@H](C)O[C@@H](O[C@H]2[C@H](N(C)C)[C@@H](O)[C@H](O[C@H]3[C@@H](CC=O)C[C@@H](C)[C@@H](O)CN(C)CCC[C@H](C/C=C/c4ccc(N)nc4)OC(=O)C[C@@H](OC(=O)CC)[C@@H]3OC)O[C@@H]2C)C[C@@]1(C)OC(=O)CC | 1 (≈ 0.978 µM) | 0.03 (≈ 0.0293 µM) | 8 (≈ 7.83 µM) | 8 (≈ 7.83 µM) | 8 (≈ 7.83 µM) | 0.25 (≈ 0.245 µM) | 0.5 (≈ 0.489 µM) | 0.06 (≈ 0.0587 µM) | 0.06 (≈ 0.0587 µM) | 0.13 (≈ 0.127 µM) | > 32 | 0.5 (≈ 0.489 µM) | 4 (≈ 3.91 µM) | 16 (≈ 15.7 µM) | 32 (≈ 31.3 µM) |
| CCNC(=O)O[C@H]1[C@H](C)O[C@@H](O[C@H]2[C@H](N(C)C)[C@@H](O)[C@H](O[C@H]3[C@@H](CC=O)C[C@@H](C)[C@@H](O)CN(C)CCC[C@H](C/C=C/c4cccnc4)OC(=O)C[C@@H](OC(=O)CC)[C@@H]3OC)O[C@@H]2C)C[C@@]1(C)OC(=O)CC | 0.5 (≈ 0.496 µM) | 0.015 (≈ 0.0149 µM) | 32 (≈ 31.8 µM) | 32 (≈ 31.8 µM) | 32 (≈ 31.8 µM) | 0.5 (≈ 0.496 µM) | 0.5 (≈ 0.496 µM) | 0.06 (≈ 0.0596 µM) | 0.06 (≈ 0.0596 µM) | 0.13 (≈ 0.129 µM) | > 64 | 0.5 (≈ 0.496 µM) | 4 (≈ 3.97 µM) | 16 (≈ 15.9 µM) | 32 (≈ 31.8 µM) |
